Test results from PubChem BioAssay (NCI).
Values joined by “and” are separate entries in the source; they are usually repeats but may differ in a detail not shown here. Identical values can stand only once.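 Exposure lasted 48 hours, with cells grown in 96-well plates and compounds tested at five concentrations. GI50 = concentration required for 50% inhibition of growth. Definition used: TGI = concentration required for complete inhibition of growth.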

Tests used:
Test in all cases: NCI tumour cell line growth inhibition, 48 h
XF 498 CNS = test system: XF 498 CNS
SNB-78 CNS = test system: SNB-78 CNS
DLD-1 colon = test system: DLD-1 colon
M19-MEL melanoma = test system: M19-MEL melanoma
LXFL 529 NSCLC = test system: LXFL 529 NSCLC
RXF-631 renal = test system: RXF-631 renal
HOP-18 NSCLC = test system: HOP-18 NSCLC
DMS 273 small cell lung = test system: DMS 273 small cell lung
MDA-N = test system: MDA-N

## COc1ccc(/C=C2\Cc3ccccc3C2=O)cc1OC
XF 498 CNS
  TGI: > 100 µM
SNB-78 CNS
  TGI: > 100 µM
DLD-1 colon
  TGI: > 100 µM
M19-MEL melanoma
  TGI: > 100 µM
LXFL 529 NSCLC
  TGI: > 100 µM

## c1ccc2c(CNCCCCCCNCc3cccc4ccccc34)cccc2c1
XF 498 CNS
  TGI: 7.26 µM
SNB-78 CNS
  TGI: 23.9 µM
DLD-1 colon
  TGI: 13.8 µM
M19-MEL melanoma
  TGI: 14.3 µM
LXFL 529 NSCLC
  TGI: 3.39 µM
RXF-631 renal
  TGI: 9.46 µM
HOP-18 NSCLC
  TGI: 29.1 µM
DMS 273 small cell lung
  TGI: 26.6 µM

## COC(=O)C[CH](C(=O)OC)[Ge]([CH3])([CH3])[S]c1ccccc1 (configuration not stated)
SNB-78 CNS
  GI50: 22.1 µM
  TGI: 96.7 µM
DLD-1 colon
  GI50: 22 µM
  TGI: 42.4 µM
M19-MEL melanoma
  GI50: 16.9 µM
  TGI: 54.7 µM
LXFL 529 NSCLC
  GI50: 17.5 µM
  TGI: 36 µM
HOP-18 NSCLC
  GI50: > 100 µM
  TGI: > 100 µM
DMS 273 small cell lung
  GI50: 12.6 µM
  TGI: 29.9 µM

## COC(=O)c1c[nH]c(=O)[nH]c1=O
MDA-N
  TGI: > 100 µM

## CN(C)C[C@H]1CC[C@@H](CN(C)C)C1=O
XF 498 CNS
  TGI: 15.1 µM
SNB-78 CNS
  TGI: 23.3 µM
DLD-1 colon
  TGI: 11.5 µM
M19-MEL melanoma
  TGI: 17 µM
LXFL 529 NSCLC
  TGI: 12.5 µM
HOP-18 NSCLC
  TGI: 14.8 µM
DMS 273 small cell lung
  TGI: 16.7 µM
MDA-N
  TGI: 16.1 µM

## COC(=O)/C=C/C(=O)C1C(C(=O)OC)C2(C(=O)OC)CCC1(C(=O)OC)N2 (configuration not stated)
SNB-78 CNS
  TGI: > 100 µM
DLD-1 colon
  TGI: > 100 µM
M19-MEL melanoma
  TGI: > 100 µM
HOP-18 NSCLC
  TGI: > 100 µM

## COc1ccccc1/C=C\c1cnnc2ccccc12
MDA-N
  TGI: 9.66 µM

## C=CN1C(=O)OC(c2ccccc2)C1c1ccccc1 (configuration not stated)
SNB-78 CNS
  GI50: > 100 µM
  TGI: > 100 µM
DLD-1 colon
  GI50: > 100 µM
  TGI: > 100 µM
M19-MEL melanoma
  GI50: > 100 µM
  TGI: > 100 µM
LXFL 529 NSCLC
  GI50: > 100 µM
  TGI: > 100 µM
RXF-631 renal
  GI50: > 100 µM
  TGI: > 100 µM
HOP-18 NSCLC
  GI50: > 100 µM
  TGI: > 100 µM
DMS 273 small cell lung
  TGI: > 100 µM

## O=C(O)c1c(O)c2cc(Br)ccc2oc1=O
MDA-N
  TGI: > 100 µM

## O=P(Oc1ccc(Cl)cc1)(Oc1ccc(Cl)cc1)N1CC1
MDA-N
  TGI: > 10 µM

## CC(C)[C@@H]1C=C(c2ccccc2)c2ccccc2C1C(C#N)(C#N)C(C)C (some centres not stated)
XF 498 CNS
  TGI: > 100 µM
SNB-78 CNS
  TGI: > 100 µM
DLD-1 colon
  TGI: > 100 µM
M19-MEL melanoma
  TGI: > 100 µM
LXFL 529 NSCLC
  TGI: > 100 µM
HOP-18 NSCLC
  TGI: > 100 µM
DMS 273 small cell lung
  TGI: > 100 µM

## COc1cc([C@@H]2c3cc4c(cc3[C@@H](NC(=O)c3ccc(N)cc3)C3COC(=O)[C@@H]32)OCO4)cc(OC)c1O (some centres not stated)
DLD-1 colon
  TGI: 35.4 µM
M19-MEL melanoma
  TGI: > 100 µM
LXFL 529 NSCLC
  TGI: > 100 µM
HOP-18 NSCLC
  TGI: > 100 µM
DMS 273 small cell lung
  TGI: 16.3 µM

## N#Cc1cccc(NC(=O)c2ccc(C(=O)O)c(C(=O)c3ccc(C(=O)O)c(C(=O)Nc4cccc(C#N)c4)c3)c2)c1
XF 498 CNS
  TGI: > 100 µM
SNB-78 CNS
  TGI: > 100 µM
DLD-1 colon
  TGI: > 100 µM
M19-MEL melanoma
  TGI: > 100 µM
LXFL 529 NSCLC
  TGI: > 100 µM
HOP-18 NSCLC
  TGI: > 100 µM
DMS 273 small cell lung
  TGI: > 100 µM

## CCC1C(C)c2c([nH]c3ccccc23)C2C(=O)N(c3ccccc3)C(=O)C21 (configuration not stated)
XF 498 CNS
  TGI: 36 µM
SNB-78 CNS
  TGI: 67.6 µM
DLD-1 colon
  TGI: 34.9 µM
M19-MEL melanoma
  TGI: 29.6 µM
LXFL 529 NSCLC
  TGI: 96.2 µM
RXF-631 renal
  TGI: 26.3 µM
DMS 273 small cell lung
  TGI: 37.4 µM

## OCC(O)C(O)c1nn(-c2ccccc2)c2nc3cc(Cl)c(Cl)cc3nc12 (configuration not stated)
XF 498 CNS
  TGI: > 100 µM
SNB-78 CNS
  TGI: > 100 µM
DLD-1 colon
  TGI: > 100 µM
M19-MEL melanoma
  TGI: > 100 µM
LXFL 529 NSCLC
  TGI: 70.9 µM
RXF-631 renal
  TGI: 91.5 µM
HOP-18 NSCLC
  TGI: > 100 µM
DMS 273 small cell lung
  TGI: 56.6 µM

## S=c1nc[nH]c2c1ncn2Cc1ccco1
MDA-N
  TGI: > 100 µM

## Cc1nc(C)c(C(=O)Nc2cccc3c2C(=O)NC3=O)cc1C(=O)Nc1cccc2c1C(=O)NC2=O
XF 498 CNS
  TGI: > 100 µM
SNB-78 CNS
  TGI: > 100 µM
DLD-1 colon
  TGI: > 100 µM
M19-MEL melanoma
  TGI: > 100 µM
LXFL 529 NSCLC
  TGI: > 100 µM
HOP-18 NSCLC
  TGI: > 100 µM
DMS 273 small cell lung
  TGI: > 100 µM

## O=C(CC(=O)N1N=C(c2ccccc2)C(N=Nc2ccc(C(=O)O)cc2)C1=O)Nc1ccc(F)cc1 (configuration not stated)
XF 498 CNS
  TGI: 93.4 µM
SNB-78 CNS
  TGI: > 100 µM
DLD-1 colon
  TGI: > 100 µM
M19-MEL melanoma
  TGI: > 100 µM
LXFL 529 NSCLC
  TGI: > 100 µM
RXF-631 renal
  TGI: > 100 µM
DMS 273 small cell lung
  TGI: 78.7 µM

## CN(C)c1ccc(/C=C2\C[C@H]3[C@@H]4CC=C5C[C@@H](N6CCCC6)CC[C@]5(C)[C@H]4CC[C@]3(C)[C@H]2O)cc1
MDA-N
  GI50: 2.87 µM
  TGI: 2.34 µM and 8.6 µM

## CC1=NNC(=NCCN(C)C)C/C1=C/c1ccccc1Cl
XF 498 CNS
  TGI: > 100 µM
SNB-78 CNS
  TGI: > 100 µM
DLD-1 colon
  TGI: > 100 µM
M19-MEL melanoma
  TGI: > 100 µM
LXFL 529 NSCLC
  TGI: > 100 µM
RXF-631 renal
  TGI: > 100 µM
HOP-18 NSCLC
  TGI: > 100 µM
DMS 273 small cell lung
  TGI: > 100 µM

## COC(=O)C1=C(OC)c2cc3c(cc2C(c2cc(OC)c(OC)c(OC)c2)C1C(=O)OC)OCO3 (configuration not stated)
XF 498 CNS
  TGI: > 100 µM
SNB-78 CNS
  TGI: > 100 µM
DLD-1 colon
  TGI: > 100 µM
M19-MEL melanoma
  TGI: > 100 µM
LXFL 529 NSCLC
  TGI: > 100 µM
HOP-18 NSCLC
  TGI: > 100 µM
DMS 273 small cell lung
  TGI: > 100 µM

## O=C1C2c3[nH]c4ccccc4c3[C@@H]3CCCCCCCCCCC3C2C(=O)N1c1ccccc1 (some centres not stated)
SNB-78 CNS
  TGI: 24.7 µM
DLD-1 colon
  TGI: > 100 µM
M19-MEL melanoma
  TGI: 57.4 µM
LXFL 529 NSCLC
  TGI: 28.1 µM
RXF-631 renal
  TGI: 28 µM
HOP-18 NSCLC
  TGI: 99.6 µM
DMS 273 small cell lung
  TGI: > 100 µM
